Reference: patent publication US20070148225A1 (ALCON, INC., priority 2005, published 2007)

System: FGFR
Test: Kinase inhibition, cell-free enzymatic assay
Assay type: biochemical
Settings: 1 mM ATP

Cc1ccc(F)c(NC(=O)Nc2ccc(-c3cccc4[nH]nc(N)c34)cc2)c1 [RTKi, N-[4-(3-amino-1H-indazol-4-yl)phenyl]-N′-(2-fluoro-5-methylphenyl) urea]
IC50: > 12.5 µM
